{
  "source": "patent US6835382B2",
  "about": "“Ii peptide therapeutics to enhance antigen presentation” (University of Massachusetts, priority 1996, dated 2004)",
  "key": {"[1]": {"biological_target": "T1, murine E^d MHC class II allele (Mus musculus, UniProt P01904+P01915)", "T1 sequence (P01904 26-255)": "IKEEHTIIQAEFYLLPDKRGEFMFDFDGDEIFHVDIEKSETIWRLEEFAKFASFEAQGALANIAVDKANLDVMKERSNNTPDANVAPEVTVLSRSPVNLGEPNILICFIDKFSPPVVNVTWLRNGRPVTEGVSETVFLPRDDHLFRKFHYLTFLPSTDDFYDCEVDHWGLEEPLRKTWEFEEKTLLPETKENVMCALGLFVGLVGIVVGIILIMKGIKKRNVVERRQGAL", "T1 sequence (P01915 27-264 limits assumed)": "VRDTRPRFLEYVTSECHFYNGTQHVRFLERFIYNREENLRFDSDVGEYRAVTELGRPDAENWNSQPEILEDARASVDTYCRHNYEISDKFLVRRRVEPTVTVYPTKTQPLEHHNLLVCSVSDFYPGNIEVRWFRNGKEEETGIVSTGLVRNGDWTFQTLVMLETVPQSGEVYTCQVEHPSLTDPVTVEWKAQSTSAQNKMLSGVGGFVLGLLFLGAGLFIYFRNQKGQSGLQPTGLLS", "test": "simultaneous assay, E^d allele (A20 APC, G28.C9 T hybridoma, HEL106-116; HT-2 [3H]TdR readout)", "assay_type": "cell-based", "parameters": "The A20 and CH27 B cell lymphoma lines express H-2^d and H-2^k alleles, respectively; endogenous in cells; host or cells: A20 B cell lymphoma (mitomycin C-treated or paraformaldehyde-fixed)", "outline": "(§1)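 Antigenic peptide, mitomycin C-treated APC, effector compound and allele-restricted T hybridoma cultured together for 24 h. Supernatant then transferred to interleukin-dependent HT-2 cells. T cell activation quantified as [3H]TdR uptake by HT-2 cells.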"}, "[2]": {"system": "murine E^k MHC class II allele", "test": "simultaneous assay, E^k allele (CH27 APC, TPc9.1 T hybridoma, THMCC82-103 or PGCC81-104)", "assay_type": "cell-based", "outline": "as §1"}, "[3]": {"details": "Table 7, AE peptide 64 μM, supernatant 1:4"}, "[4]": {"details": "Table 7, AE peptide 64 μM, supernatant 1:4, normalized by a factor of 5"}, "[5]": {"details": "Table 2, AE peptide 64 μM, 0.05 μM HEL106-116, supernatant 1:2"}, "[6]": {"details": "Table 2, AE peptide 64 μM, 0.05 μM PGCC81-104, supernatant 1:2"}, "[7]": {"details": "Table 14, AE peptide 64 μM, supernatant 1:4"}, "[8]": {"details": "Table 13, AE peptide 1 μM (fourth value), supernatant 1:4"}, "[9]": {"details": "Table 13, AE peptide 4 μM (third value), supernatant 1:4"}, "[10]": {"details": "Table 13, AE peptide 16 μM (second value), supernatant 1:4"}, "[11]": {"details": "Table 13, AE peptide 64 μM (first value), supernatant 1:4"}, "[12]": {"details": "Table 15, AE peptide 16 μM, supernatant 1:4"}, "[13]": {"details": "Table 16, AE peptide 4 μM, supernatant 1:8"}, "[14]": {"details": "Table 18, AE peptide 64 μM, supernatant 1:4"}, "[15]": {"details": "Table 1, AE peptide 64 μM (first value), 0.4 μM HEL106-116, supernatant 1:4"}, "[16]": {"details": "Table 1, AE peptide 64 μM (first value), 0.075 μM THMCC82-103, supernatant 1:2"}, "[17]": {"details": "Table 4, AE109 homolog 64 μM, supernatant 1:2"}},
  "note": "Non-standard residues stand in square brackets, D forms with d. Cit = NC(=O)NCCC[C@H](N)C(=O)O",
  "data": [
    {"substance": "Ac-LRMK Cit PK-NH2 (Ac-LRMK[Cit]PK-NH2; SMILES CSCC[C@H](NC(=O)[C@H](CCCNC(=N)N)NC(=O)[C@H](CC(C)C)NC(C)=O)C(=O)N[C@@H](CCCCN)C(=O)N[C@@H](CCCNC(N)=O)C(=O)N1CCC[C@H]1C(=O)N[C@@H](CCCCN)C(N)=O) [AE226]", "values": [
      {"measurement": "Times Baseline Response, E^d", "setting": "[1]; [3]", "result": 9.0},
      {"measurement": "Times Baseline Response, E^k", "setting": "[2]; [4]", "result": 9.0}
    ]},
    {"substance": "Ac-LRMK E PK-NH2 (Ac-LRMKEPK-NH2) [AE231]", "values": [
      {"measurement": "Times Baseline Response, E^d", "setting": "[1]; [3]", "result": 1.8},
      {"measurement": "Times Baseline Response, E^k", "setting": "[2]; [4]", "result": 1.2}
    ]},
    {"substance": "Ac-NLQLDSLRMKLPKSAK-NH2 [AE150]", "values": [
      {"measurement": "Times Baseline Response, E^d", "setting": "[1]; [5]", "result": 3.2},
      {"measurement": "Times Baseline Response, E^k", "setting": "[2]; [6]", "result": 0.8}
    ]},
    {"substance": "Ac-LR (mL) KyPk-NH2 [AE306]", "values": [
      {"measurement": "Times Baseline Response, E^d", "setting": "[1]; [7]", "result": 3.2},
      {"measurement": "Times Baseline Response, E^k", "setting": "[2]; [7]", "result": 13.7}
    ]},
    {"substance": "Ac-LRMK (mL) PK-NH2 [AE175]", "values": [
      {"measurement": "Times Baseline Response, E^d", "setting": "[1]; [8]", "result": 1},
      {"measurement": "Times Baseline Response, E^d", "setting": "[1]; [9]", "result": 6},
      {"measurement": "Times Baseline Response, E^d", "setting": "[1]; [10]", "result": 36},
      {"measurement": "Times Baseline Response, E^d", "setting": "[1]; [11]", "result": 61},
      {"measurement": "Times Baseline Response, E^d", "setting": "[1]; [7]", "result": 15.9},
      {"measurement": "Times Baseline Response, E^k", "setting": "[2]; [8]", "result": 2.8},
      {"measurement": "Times Baseline Response, E^k", "setting": "[2]; [9]", "result": 6.5},
      {"measurement": "Times Baseline Response, E^k", "setting": "[2]; [10]", "result": 28.5},
      {"measurement": "Times Baseline Response, E^k", "setting": "[2]; [11]", "result": 59.0},
      {"measurement": "Times Baseline Response, E^k", "setting": "[2]; [7]", "result": 58.0}
    ]},
    {"substance": "Ac-DSLRMKLPKSAK-NH2 [AE154]", "values": [
      {"measurement": "Times Baseline Response, E^d", "setting": "[1]; [5]", "result": 15.1},
      {"measurement": "Times Baseline Response, E^k", "setting": "[2]; [6]", "result": 2.2}
    ]},
    {"substance": "Ac-LRMK Y PK-NH2 (Ac-LRMKYPK-NH2; not fully specified; printed as Ac-LRMK Y PK-NH2) [AE235]", "values": [
      {"measurement": "Times Baseline Response, E^d", "setting": "[1]; [3]", "result": 14.6},
      {"measurement": "Times Baseline Response, E^d", "setting": "[1]; [7]", "result": 12.5},
      {"measurement": "Times Baseline Response, E^d", "setting": "[1]; [12]", "result": 29.4},
      {"measurement": "Times Baseline Response, E^d", "setting": "[1]; [13]", "result": 14.3},
      {"measurement": "Times Baseline Response, E^d", "setting": "[1]; Table 17, AE peptide 4 μM, supernatant 1:4", "result": 51},
      {"measurement": "Times Baseline Response, E^d", "setting": "[1]; [14]", "result": 12.5},
      {"measurement": "Times Baseline Response, E^k", "setting": "[2]; [4]", "result": 21.8},
      {"measurement": "Times Baseline Response, E^k", "setting": "[2]; [7]", "result": 56.6},
      {"measurement": "Times Baseline Response, E^k", "setting": "[2]; [12]", "result": 47.7},
      {"measurement": "Times Baseline Response, E^k", "setting": "[2]; [13]", "result": 8.4},
      {"measurement": "Times Baseline Response, E^k", "setting": "[2]; Table 17, AE peptide 64 μM, supernatant 1:4", "result": 26.8},
      {"measurement": "Times Baseline Response, E^k", "setting": "[2]; [14]", "result": 56.6}
    ]},
    {"substance": "Ac-LRMKLPKPPK-NH2 [AE168]", "values": [
      {"measurement": "Times Baseline Response, E^d", "setting": "[1]; [15]", "result": "16.7, n.d."},
      {"measurement": "Times Baseline Response, E^k", "setting": "[2]; [16]", "result": "4.7, n.d."}
    ]},
    {"substance": "Ac-Y E MKLPKSAK-NH2 [AE136]", "values": [
      {"measurement": "Times Baseline Response, E^d", "setting": "[1]; [17]", "result": 0.9},
      {"measurement": "Times Baseline Response, E^k", "setting": "[2]; [17]", "result": 0.7}
    ]},
    {"substance": "Ac-L r MKLPK-NH2 [AE161]", "values": [
      {"measurement": "Times Baseline Response, E^d", "setting": "[1]; Table 11, AE peptide 64 μM, supernatant 1:8", "result": 4.0},
      {"measurement": "Times Baseline Response, E^k", "setting": "[2]; Table 11, AE peptide 64 μM, supernatant 1:4", "result": 1.1}
    ]},
    {"substance": "Ac-L[Cit]NKLPK-NH2 [AE343]", "values": [
      {"measurement": "Times Baseline Response, E^d", "setting": "[1]; [12]", "result": 1.2},
      {"measurement": "Times Baseline Response, E^k", "setting": "[2]; [12]", "result": 2.9}
    ]},
    {"substance": "Ac-LRMK K PK-NH2 (Ac-LRMKKPK-NH2) [AE229]", "values": [
      {"measurement": "Times Baseline Response, E^d", "setting": "[1]; [3]", "result": 13.2},
      {"measurement": "Times Baseline Response, E^k", "setting": "[2]; [4]", "result": 16.2}
    ]},
    {"substance": "Ac-YRM-NH2 [AE118]", "values": [
      {"measurement": "Times Baseline Response, E^d", "setting": "[1]; Table 1, AE peptide 16 μM (second value), 0.4 μM HEL106-116, supernatant 1:4", "result": 0.6},
      {"measurement": "Times Baseline Response, E^d", "setting": "[1]; [15]", "result": 1.0},
      {"measurement": "Times Baseline Response, E^k", "setting": "[2]; Table 1, AE peptide 16 μM (second value), 0.075 μM THMCC82-103, supernatant 1:2", "result": 3.0},
      {"measurement": "Times Baseline Response, E^k", "setting": "[2]; [16]", "result": 5.6}
    ]},
    {"substance": "Ac-YAMKLPKSAK-NH2 [AE121]", "values": [
      {"measurement": "Times Baseline Response, E^d", "setting": "[1]; [17]", "result": 1.1},
      {"measurement": "Times Baseline Response, E^d", "setting": "[1]; Table 10, AE peptide 16 μM (second value), supernatant 1:2", "result": 1.9},
      {"measurement": "Times Baseline Response, E^d", "setting": "[1]; Table 10, AE peptide 64 μM (first value), supernatant 1:2", "result": 2.7},
      {"measurement": "Times Baseline Response, E^k", "setting": "[2]; [17]", "result": 1.0},
      {"measurement": "Times Baseline Response, E^k", "setting": "[2]; Table 10, AE peptide 64 μM, supernatant 1:2 (first value)", "result": 21.6},
      {"measurement": "Times Baseline Response, E^k", "setting": "[2]; Table 10, AE peptide 64 μM, supernatant 1:4 (second value)", "result": 19.7}
    ]},
    {"substance": "Ac-LDSLRMKLPKSAK-NH2 [AE153]", "values": [
      {"measurement": "Times Baseline Response, E^d", "setting": "[1]; [5]", "result": 8.5},
      {"measurement": "Times Baseline Response, E^k", "setting": "[2]; [6]", "result": 1.4}
    ]}
  ]
}
